Assay results reported in US8410085B2, “Phospholipid compositions and uses thereof” (Baylor College of Medicine, priority 2007, dated 2013).
One block for each compound: values may come before it.

Columns and labels:
LRH-1 [1] = molecular target: T1, LRH-1 (Homo sapiens, UniProt O00482); test: human LRH-1 transactivation, HeLa cotransfection with LRH-1/SF-1 response element luciferase reporter; format: cell-based; design: expressed in transfected cells; host or cells: HeLa (A1, A3); conditions: HeLa cells, 100 μM
T1 sequence (O00482 whole entry): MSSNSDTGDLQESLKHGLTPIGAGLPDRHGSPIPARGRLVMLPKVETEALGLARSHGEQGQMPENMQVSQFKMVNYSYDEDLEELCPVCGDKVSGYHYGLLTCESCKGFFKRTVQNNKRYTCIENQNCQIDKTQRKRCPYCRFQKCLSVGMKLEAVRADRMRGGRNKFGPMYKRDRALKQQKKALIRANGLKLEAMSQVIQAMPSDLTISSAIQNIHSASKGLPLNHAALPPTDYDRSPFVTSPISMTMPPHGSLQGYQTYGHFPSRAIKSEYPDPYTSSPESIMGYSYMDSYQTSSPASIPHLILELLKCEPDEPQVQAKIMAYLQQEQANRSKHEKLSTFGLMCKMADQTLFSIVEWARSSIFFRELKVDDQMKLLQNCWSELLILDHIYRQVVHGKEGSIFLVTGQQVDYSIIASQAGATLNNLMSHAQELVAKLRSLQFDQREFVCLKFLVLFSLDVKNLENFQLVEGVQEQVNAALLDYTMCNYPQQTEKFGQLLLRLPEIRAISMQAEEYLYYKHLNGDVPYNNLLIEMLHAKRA
Protocol: Controls (vector only and no lipid) are as indicated. […] Cells were treated with 100 μM of the indicated PCs and luciferase expression (RLU, relative light units) was normalized using an internal β-galactosidase control. vec, empty vector; −, ethanol solvent control.
HeLa cells were transfected with an hLRH-1 expression vector along with mSHP1080-Luc reporter. […] Oct4-PPmut Luc is identical to Oct4-PP Luc except for the insertion of point mutations in the DR0 element. […] HeLa cells were cotransfected with various nuclear receptors and the reporter plasmid (RE-tk-luc). […] Data are expressed for each reporter as fold activation of normalized luciferase activity relative to veh-treated cells.
A number of different phosphatidylcholine (PC) species were screened for effects on human LRH-1 transactivation in HeLa cell cotransfections with a synthetic luciferase reporter containing multiple copies of an LRH-1/SF-1 response element.

SF-1 [2] = molecular target: T2, SF-1 (Homo sapiens, UniProt Q13285); design: expressed in transfected cells; host or cells: HeLa; conditions: in vitro, Li et al. Mol Cell Biol 2007; read-out: affinity of SF-1; cited from earlier work
T2 sequence (Q13285 whole entry): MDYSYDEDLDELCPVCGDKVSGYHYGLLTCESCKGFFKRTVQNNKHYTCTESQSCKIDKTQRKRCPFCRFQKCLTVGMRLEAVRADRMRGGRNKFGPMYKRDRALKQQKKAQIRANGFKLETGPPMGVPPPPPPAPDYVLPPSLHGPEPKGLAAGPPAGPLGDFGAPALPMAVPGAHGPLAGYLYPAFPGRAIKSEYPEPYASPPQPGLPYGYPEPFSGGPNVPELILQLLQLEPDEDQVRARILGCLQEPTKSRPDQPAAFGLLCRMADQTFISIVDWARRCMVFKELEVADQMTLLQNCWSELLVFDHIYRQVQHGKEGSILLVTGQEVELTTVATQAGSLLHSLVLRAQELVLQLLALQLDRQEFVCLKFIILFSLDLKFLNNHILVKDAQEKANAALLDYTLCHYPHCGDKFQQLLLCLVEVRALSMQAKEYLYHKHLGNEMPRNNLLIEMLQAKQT

SF-1 [3] = molecular target: T2, SF-1; test: SF-1 transactivation, reporter cotransfection in HeLa cells
LRH-1 [4] = test: hepatic gene expression in LRH-1 f/f mice infected with Ad-Cre; format: in vivo, mouse; conditions: 100 mg/kg oral
Text: (§1) Total liver RNA was isolated and prepared for the cDNA. […] Total liver RNA was isolated and prepared for cDNA.

wild type male mice = test: bile acids, serum glucose and NEFA in wild type mice after oral gavage; format: in vivo, mouse; conditions: 100 mg/kg oral
LRH-1 [5] = molecular target: T1, LRH-1; test: Oct4 proximal promoter (Oct4-PP Luc) activation by hLRH-1 in COS-1 cells; conditions: COS-1 cells, Oct4-PP Luc
[6] = test system: hepatic expression of Cyp7A1, Cyp8B1, mSR-BI, SHP; test: hepatic gene expression (Q-PCR) in wild type mice after oral gavage; format: in vivo, mouse; conditions: 100 mg/kg oral, five times over three days
Text: as §1

LRH-1 [7] = molecular target: T1, LRH-1; test: LRH-1 Luc reporter in C3A HepG2 cells (endogenous hLRH-1); conditions: C3A/HepG2 cells or cells with non-target control siRNAs
[8] = molecular target: hLRH-1 LBD / SRC-3 receptor interaction domain (Homo sapiens, UniProt O00482); test: mammalian two-hybrid assay, VP16-hLRH1 LBD with Gal4-SRC3 RID in HeLa cells
Chain of hLRH-1 LBD / SRC-3 receptor interaction domain (O00482 300-539 limits assumed): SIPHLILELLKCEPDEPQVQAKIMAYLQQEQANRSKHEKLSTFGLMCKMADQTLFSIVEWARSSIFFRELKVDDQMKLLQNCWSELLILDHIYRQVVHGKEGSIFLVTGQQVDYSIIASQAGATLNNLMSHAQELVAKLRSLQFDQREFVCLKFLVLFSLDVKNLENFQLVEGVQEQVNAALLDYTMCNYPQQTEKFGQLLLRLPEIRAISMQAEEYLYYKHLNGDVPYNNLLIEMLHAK
Chain of hLRH-1 LBD / SRC-3 receptor interaction domain (Q9Y6Q9 whole entry partner, the tested form may be a part): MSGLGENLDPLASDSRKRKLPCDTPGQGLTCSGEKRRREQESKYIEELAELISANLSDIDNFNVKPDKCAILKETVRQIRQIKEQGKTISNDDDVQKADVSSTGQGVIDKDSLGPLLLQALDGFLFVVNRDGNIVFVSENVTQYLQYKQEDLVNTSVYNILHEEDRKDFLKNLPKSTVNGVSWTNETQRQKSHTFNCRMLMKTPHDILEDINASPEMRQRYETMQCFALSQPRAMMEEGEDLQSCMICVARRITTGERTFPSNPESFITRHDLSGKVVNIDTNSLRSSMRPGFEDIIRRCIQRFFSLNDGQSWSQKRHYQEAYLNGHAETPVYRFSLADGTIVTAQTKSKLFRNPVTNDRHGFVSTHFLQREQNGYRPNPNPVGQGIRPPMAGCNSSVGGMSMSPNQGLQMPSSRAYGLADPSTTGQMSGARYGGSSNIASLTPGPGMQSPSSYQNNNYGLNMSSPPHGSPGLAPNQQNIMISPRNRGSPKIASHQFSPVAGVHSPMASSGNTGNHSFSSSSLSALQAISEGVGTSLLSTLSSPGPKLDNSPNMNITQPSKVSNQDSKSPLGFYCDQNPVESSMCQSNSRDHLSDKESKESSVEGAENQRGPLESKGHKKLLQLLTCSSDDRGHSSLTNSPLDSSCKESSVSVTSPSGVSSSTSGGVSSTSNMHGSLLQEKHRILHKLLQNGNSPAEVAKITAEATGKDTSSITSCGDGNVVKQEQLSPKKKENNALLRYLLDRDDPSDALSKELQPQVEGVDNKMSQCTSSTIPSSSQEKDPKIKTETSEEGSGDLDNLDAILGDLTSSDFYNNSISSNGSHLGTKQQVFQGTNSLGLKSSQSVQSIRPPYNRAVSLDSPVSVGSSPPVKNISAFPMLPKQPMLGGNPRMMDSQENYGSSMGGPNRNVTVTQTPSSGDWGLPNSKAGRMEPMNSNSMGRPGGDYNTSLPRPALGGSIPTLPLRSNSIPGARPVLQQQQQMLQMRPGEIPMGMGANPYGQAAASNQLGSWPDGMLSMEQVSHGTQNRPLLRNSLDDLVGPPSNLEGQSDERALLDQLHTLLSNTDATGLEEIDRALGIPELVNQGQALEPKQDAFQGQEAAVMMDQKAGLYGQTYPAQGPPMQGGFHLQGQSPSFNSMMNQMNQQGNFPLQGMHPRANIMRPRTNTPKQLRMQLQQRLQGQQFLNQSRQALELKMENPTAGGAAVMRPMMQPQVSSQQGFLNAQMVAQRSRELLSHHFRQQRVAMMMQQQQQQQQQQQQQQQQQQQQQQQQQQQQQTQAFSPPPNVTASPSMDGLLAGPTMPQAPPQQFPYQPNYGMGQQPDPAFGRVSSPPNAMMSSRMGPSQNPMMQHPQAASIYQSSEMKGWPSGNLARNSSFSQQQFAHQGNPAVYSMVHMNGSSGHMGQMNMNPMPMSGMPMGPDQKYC

LRH-1 target Cyp8B1 = test: hCYP8B1 expression by Q-PCR in C3A HepG2 cells; conditions: for expression of Cyp8B1: C3A/HepG2 cells or cells with non-target control siRNAs
PPARδ = PPARδ (Homo sapiens, UniProt Q03181); test: nuclear receptor cotransfection (RE-tk-luc), HeLa cells; conditions: 100 μM
hepatic gene expression = test: hepatic mRNA levels in db/db mice
RXRα = RXRα (Homo sapiens, UniProt P19793); test: nuclear receptor cotransfection (RE-tk-luc), HeLa cells; conditions: 100 μM
Chain of RXRα (P19793 whole entry): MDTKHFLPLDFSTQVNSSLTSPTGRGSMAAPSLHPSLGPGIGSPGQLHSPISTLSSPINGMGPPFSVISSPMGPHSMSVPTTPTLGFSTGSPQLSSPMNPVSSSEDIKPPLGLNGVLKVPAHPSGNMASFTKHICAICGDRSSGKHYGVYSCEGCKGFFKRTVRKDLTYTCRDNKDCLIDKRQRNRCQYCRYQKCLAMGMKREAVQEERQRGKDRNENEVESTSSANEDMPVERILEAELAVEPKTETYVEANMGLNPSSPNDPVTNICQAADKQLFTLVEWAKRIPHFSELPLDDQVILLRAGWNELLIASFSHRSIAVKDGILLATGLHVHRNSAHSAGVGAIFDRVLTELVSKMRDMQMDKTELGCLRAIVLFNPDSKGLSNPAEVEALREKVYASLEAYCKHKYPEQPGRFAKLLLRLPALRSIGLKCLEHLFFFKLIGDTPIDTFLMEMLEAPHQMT

human CAR = human CAR (Homo sapiens, UniProt Q14994); test: as above; conditions: 100 μM
ERα = ERα (Homo sapiens, UniProt P03372); test: as above; conditions: 100 μM
Chain of ERα (P03372 whole entry, species assumed): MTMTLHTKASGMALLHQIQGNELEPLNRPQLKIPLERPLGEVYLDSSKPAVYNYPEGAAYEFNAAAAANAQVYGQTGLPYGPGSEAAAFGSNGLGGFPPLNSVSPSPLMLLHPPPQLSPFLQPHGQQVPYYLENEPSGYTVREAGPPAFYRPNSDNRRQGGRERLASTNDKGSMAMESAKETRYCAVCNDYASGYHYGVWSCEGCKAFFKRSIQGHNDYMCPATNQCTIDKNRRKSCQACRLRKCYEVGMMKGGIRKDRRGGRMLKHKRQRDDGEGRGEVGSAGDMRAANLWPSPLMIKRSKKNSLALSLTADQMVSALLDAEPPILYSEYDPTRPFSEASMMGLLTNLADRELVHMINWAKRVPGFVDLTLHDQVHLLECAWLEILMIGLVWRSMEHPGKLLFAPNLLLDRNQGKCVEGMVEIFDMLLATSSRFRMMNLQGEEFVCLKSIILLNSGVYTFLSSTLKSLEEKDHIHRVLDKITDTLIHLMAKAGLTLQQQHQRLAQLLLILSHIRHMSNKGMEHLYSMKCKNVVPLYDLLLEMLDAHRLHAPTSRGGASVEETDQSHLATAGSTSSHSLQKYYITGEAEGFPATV

LXRα = LXRα (Homo sapiens, UniProt Q13133); test: as above; conditions: 100 μM
Chain of LXRα (Q13133 whole entry): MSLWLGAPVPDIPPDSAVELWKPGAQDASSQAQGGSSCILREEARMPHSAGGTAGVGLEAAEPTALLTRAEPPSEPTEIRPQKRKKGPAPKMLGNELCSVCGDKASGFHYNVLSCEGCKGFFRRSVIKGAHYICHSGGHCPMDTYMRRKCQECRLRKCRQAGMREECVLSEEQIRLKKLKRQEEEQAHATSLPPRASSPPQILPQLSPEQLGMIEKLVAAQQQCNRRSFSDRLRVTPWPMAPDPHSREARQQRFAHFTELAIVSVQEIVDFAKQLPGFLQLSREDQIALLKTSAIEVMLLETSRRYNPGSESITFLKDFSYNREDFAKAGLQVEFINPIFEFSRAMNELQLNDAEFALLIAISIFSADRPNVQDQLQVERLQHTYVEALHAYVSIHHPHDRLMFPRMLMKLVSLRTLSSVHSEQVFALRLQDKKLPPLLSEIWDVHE

FXR = FXR (Homo sapiens, UniProt Q96RI1); test: as above; conditions: 100 μM
db/db mice [9] = test: glucose tolerance and insulin tolerance tests in db/db mice; format: in vivo, mouse; conditions: for glucose tolerance test (GTT): oral gavage 2 weeks
Protocol: Glucose tolerance (GTT: 1.5 g/kg i.p.) was assessed in fasted mice. One week later, insulin tolerance (ITT: 2 U/kg i.p) was assessed in fed mice. In the ITT, glucose levels after insulin injection are presented as the percentage of initial glucose concentrations.
After 1 week of additional treatment, the same mice were given an insulin tolerance test (ITT) and sacrificed.

TRβ = TRβ (Homo sapiens, UniProt P10828); test: nuclear receptor cotransfection (RE-tk-luc), HeLa cells; conditions: 100 μM
PPARγ = PPARγ (Homo sapiens, UniProt P37231); test: as above; conditions: 100 μM
human PXR = human PXR (Homo sapiens, UniProt O75469); test: as above; conditions: 100 μM
Chain of human PXR (O75469 whole entry): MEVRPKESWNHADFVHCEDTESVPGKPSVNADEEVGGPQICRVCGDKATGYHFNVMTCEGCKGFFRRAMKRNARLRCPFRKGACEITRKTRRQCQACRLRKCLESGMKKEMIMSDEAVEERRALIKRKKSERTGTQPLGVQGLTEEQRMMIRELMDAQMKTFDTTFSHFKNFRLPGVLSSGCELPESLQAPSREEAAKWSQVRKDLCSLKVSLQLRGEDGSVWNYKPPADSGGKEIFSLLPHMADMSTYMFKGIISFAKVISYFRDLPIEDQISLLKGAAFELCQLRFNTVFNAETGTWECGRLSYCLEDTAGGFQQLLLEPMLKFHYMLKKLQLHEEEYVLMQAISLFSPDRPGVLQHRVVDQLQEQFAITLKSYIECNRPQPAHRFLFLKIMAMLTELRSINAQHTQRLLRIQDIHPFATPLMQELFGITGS

RARβ = RARβ (Homo sapiens, UniProt P10826); test: as above; conditions: 100 μM
db/db mice [10] = test: body and organ weights, serum and hepatic parameters in db/db mice
PPARα = PPARα (Homo sapiens, UniProt Q07869); test: nuclear receptor cotransfection (RE-tk-luc), HeLa cells; conditions: 100 μM
mouse CAR = mouse CAR (Mus musculus, UniProt O35627); test: as above; conditions: 100 μM
Chain of mouse CAR (O35627 whole entry): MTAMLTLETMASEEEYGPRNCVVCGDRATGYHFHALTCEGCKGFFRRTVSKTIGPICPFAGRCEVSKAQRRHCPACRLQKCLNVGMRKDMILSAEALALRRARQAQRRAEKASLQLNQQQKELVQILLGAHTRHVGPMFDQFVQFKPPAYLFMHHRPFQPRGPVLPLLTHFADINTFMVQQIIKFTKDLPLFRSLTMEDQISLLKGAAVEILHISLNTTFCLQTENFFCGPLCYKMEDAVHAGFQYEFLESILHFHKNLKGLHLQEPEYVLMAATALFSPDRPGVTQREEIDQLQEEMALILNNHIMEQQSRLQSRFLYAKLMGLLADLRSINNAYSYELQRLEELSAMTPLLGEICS

LRH-1 transactivation (luciferase) (LRH-1 [1]): no activation
Structure (SMILES): CCCCCCCCCC(=O)OC[C@H](COP(=O)(O)OCCN)OC(=O)CCCCCCCCC [C10:0-10:0 PE]

Structure (SMILES): CCCCCCCCCCCC(=O)OC[C@H](COP(=O)(O)OCCN)OC(=O)CCCCCCCCCCC [C12:0-12:0 PE]
LRH-1 transactivation (luciferase) (LRH-1 [1]): no activation

LRH-1 transactivation (luciferase) (LRH-1 [1]): no effect
increase of SF-1 transactivation (SF-1 [3]): 1.2-1.4 fold
Structure (SMILES): CCCCCCCCCCCCCC(=O)OC[C@H](COP(=O)(O)O)OC(=O)CCCCCCCCCCCCC [C14:0-C14:0 PA]
Kd (SF-1 [2]): ~100 nM

Structure (SMILES): CCCCCCCCCCCCCC(=O)OC[C@H](COP(=O)(O)OCCN)OC(=O)CCCCCCCCCCCCC [C14:0-C14:0 PE]
LRH-1 transactivation (luciferase) (LRH-1 [1]): no activation

Structure (SMILES): C[C@H](CCC(=O)O)[C@H]1CC[C@H]2[C@@H]3[C@H](O)C[C@@H]4C[C@H](O)CC[C@]4(C)[C@H]3C[C@H](O)[C@]12C [CA, cholic acid, reference compound]
hepatic gene expression response when LRH-1 gene removed by Cre (LRH-1 [4]): lost
liver bile acids (wild type male mice): did not show statistically significant changes
serum bile acid levels (wild type male mice): substantially elevated
serum free fatty acids (wild type male mice): decreased levels
serum glucose levels (wild type male mice): not
response with the Oct4 promoter (LRH-1 [5]): not
hepatic expression of Cyp7A1 [6]: reduced
hepatic expression of Cyp8B1 [6]: reduced
hepatic expression of SHP [6]: induced
hepatic expression of mSR-BI [6]: induced

LRH-1 Luc luciferase activity (LRH-1 [7]): not
interaction of hLRH-1 LBD with SRC-3 RID [8]: unaffected
Structure (SMILES): C[C@H](CCC(=O)O)[C@H]1CC[C@H]2[C@@H]3[C@H](O)C[C@@H]4C[C@H](O)CC[C@]4(C)[C@H]3CC[C@]12C [CDCA, chenodeoxycholic acid]

Structure (SMILES): CCCCCCCCCCCC(=O)OCC(COP(=O)([O-])OCC[N+](C)(C)C)OC(=O)CCCCCCCCCCC (stereo not drawn) [DLPC, dilauroylphosphatidylcholine]
expression of Cyp8B1 (LRH-1 target Cyp8B1): modestly but significantly induced
Cyp8B1 response when LRH-1 expression is knocked down (LRH-1 target Cyp8B1; siRNA hLRH-1): lost
activation or inhibition of PPARδ (PPARδ): did not activate or inhibit
SHP expression (hepatic gene expression; mouse, in vivo): appeared to be decreased
expression of ACC2 (hepatic gene expression; mouse, in vivo): significantly decreased
expression of FAS (hepatic gene expression; mouse, in vivo): significantly decreased
expression of SCD-1 (hepatic gene expression; mouse, in vivo): significantly decreased
expression of SREBP-1c (hepatic gene expression; mouse, in vivo): significantly decreased
hepatic expression of Cyp7A1 (hepatic gene expression; mouse, in vivo): increased expression
hepatic expression of Cyp8B1 (hepatic gene expression; mouse, in vivo): increased expression
hepatic expression of genes associated with glucose homeostasis (ACC1, glucokinase, hexokinase 1 and 2, PEPCK, glucose-6-phosphatase, pyruvate carboxylase, PGC-1α) (hepatic gene expression; mouse, in vivo): no effect
activation or inhibition of RXRα (RXRα): did not activate or inhibit
activation or inhibition of human CAR (human CAR): did not activate or inhibit
activation or inhibition of ERα (ERα): did not activate or inhibit
activation or inhibition of LXRα (LXRα): did not activate or inhibit
activation or inhibition of FXR (FXR): did not activate or inhibit
glucose tolerance test (GTT) (db/db mice [9]): remarkable improvement
insulin tolerance test (ITT) (db/db mice [9]; oral gavage 3 weeks): remarkable improvement
activation or inhibition of TRβ (TRβ): did not activate or inhibit
liver bile acids (wild type male mice): somewhat lower
serum bile acid levels (wild type male mice): substantially elevated
serum free fatty acids (wild type male mice): decreased levels
serum glucose levels (wild type male mice): decreased serum glucose levels
total bile acid pool (wild type male mice): significant increase
activation or inhibition of PPARγ (PPARγ): did not activate or inhibit
activation or inhibition of human PXR (human PXR): did not activate or inhibit
activation or inhibition of RARβ (RARβ): did not activate or inhibit
hepatic NEFA (db/db mice [10]): more modestly lowered
hepatic cholesterol (db/db mice [10]): increased
hepatic triglycerides (TG) (db/db mice [10]): significantly decreased
serum bile acid levels (db/db mice [10]): significantly increased
serum cholesterol (db/db mice [10]): modestly decreased
serum free fatty acids (NEFA) (db/db mice [10]): modestly decreased
total body weight (db/db mice [10]): not altered
weight of liver (db/db mice [10]): not altered
weight of reproductive fat pads (db/db mice [10]): not altered
activation or inhibition of PPARα (PPARα): did not activate or inhibit
activation or inhibition of mouse CAR (mouse CAR): did not activate or inhibit
SF-1 activation (SF-1 [3]; 100 μM): activate SF-1
hepatic expression of Cyp7A1 [6]: significantly induced
hepatic expression of Cyp8B1 [6]: significantly induced
hepatic expression of SHP [6]: repressed
hepatic expression of mSR-BI [6]: significantly induced

LRH-1 Luc luciferase activity (LRH-1 [7]): not
expression of Cyp8B1 (LRH-1 target Cyp8B1): not
interaction of hLRH-1 LBD with SRC-3 RID [8]: unaffected
response with the Oct4 promoter (LRH-1 [5]): not
Structure (SMILES): CCCCCCCCCCCCCCCC(=O)OC[C@H](COP(=O)([O-])OCC[N+](C)(C)C)OC(=O)CCCCCCCCCCCCCCC [DPPC, dipalmitoyl PC, reference compound]
SR-B1 expression (hepatic gene expression; db/db mice): not significantly affected
hepatic expression of Cyp7A1 (hepatic gene expression; db/db mice): not
hepatic expression of genes associated with glucose homeostasis (ACC1, glucokinase, hexokinase 1 and 2, PEPCK, glucose-6-phosphatase, pyruvate carboxylase, PGC-1α) (hepatic gene expression; db/db mice): no effect
SHP expression (hepatic gene expression; db/db mice, not statistically significant): appeared to be decreased
glucose tolerance test (GTT) (db/db mice [9]): lesser beneficial response
serum bile acid levels (db/db mice [10]): not
total body weight (db/db mice [10]): not altered
weight of liver (db/db mice [10]): not altered
weight of reproductive fat pads (db/db mice [10]): not altered
hepatic expression of Cyp7A1 [6]: without significant effect
hepatic expression of Cyp8B1 [6]: without significant effect
hepatic expression of SHP [6]: without significant effect
hepatic expression of mSR-BI [6]: without significant effect
